These results are taken from patent EP4748839A1 (CSPC Zhongqi Pharmaceutical Technology (Shijiazhuang) Co., …, priority 2023, dated 2025).

For one series, the target named is hERG channel (Homo sapiens, UniProt Q12809). Kind of series: hERG test, automated patch-clamp in CHO cells stably expressing hERG. The class given is cell-based. The conditions noted are these: hERG current inhibition, 0.37-30 µM, n = 2. How it is done:
The potential inhibitory effects of the test compounds on the hERG channel were assessed using an automated patch-clamp system. In this study, the CHO cell line stably expressing the hERG gene was used, with Cisapride as the positive control.
The CHO-hERG-DUO cell line stably expressing the hERG channel was purchased from B'SYS GmbH. The cells were cultured in F12 (HAM) medium supplemented with 10%FBS, 100 U/mL penicillin-streptomycin, 100 µg/mL hygromycin, and 100 µg/mL G418. The cells were passaged three times per week and maintained at about 80% confluence.
The test compounds were dissolved in DMSO to prepare stock solutions at a final concentration of 10 mM; the stock solution was then serially diluted with DMSO in a 1: 3 ratio (3.33 mM, 1.11 mM and 0.37 mM); and the final concentrations of the test compounds were 30 µM, 10 µM, 3.33 µM, 1.11 µM and 0.37 µM.
A baseline was established using the blank vehicle. […] The hERG current was recorded for no less than 5 minutes to reach a steady state, and then 5 scans were captured. […] The experiments were performed in duplicate (n = 2) and hERG current inhibition by five concentrations of the compound were measured to determine the IC50.
The percent current inhibition was calculated using the following equation. […]
The IC50 was calculated using Graphpad Prism 8.0.
For orientation: The hERG channel carries a current that helps repolarise heart muscle cells.

For a further series, the target named is T1, GLP-1R (Homo sapiens, UniProt P43220).
T1 construct: expressed in transfected cells
Kind of series: GLP-1R agonistic effect in GLP1R-cAmp-Luc cells (luciferase reporter; titled 'Enzymatic assay'). The note with it: for EC50: 4 hours incubation, firefly luciferin signal. The format is cell-based. The essentials: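 GLP1R-cAmp-Luc cells were exposed for 4 h at 37 °C to seven 5-fold dilutions starting at 125 nM final. Luciferin (150 µg/mL working) was then added for 30 min at room temperature, and the luciferase signal was read. EC50 came from the concentration–response curve.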
(In general: A reporter such as luciferase makes a cellular process visible.)

Series [1] is described as follows: In vivo pharmacokinetic assay in mice. The conditions noted are these: mouse; ICR mice (female), oral gavage 10 mg/kg, plasma. How it is done:
Experimental animals: ICR mice (female, 22-25 g), purchased from Beijing Vital River Laboratory Animal Technology Co., Ltd.
Experimental procedure: ICR mice were administered the test compounds by gavage. Whole blood samples of the mice were collected at 15 min, 0.5 h, 1 h, 2 h, 4 h, 8 h and 24 h after administration and centrifuged to isolate plasma. The compound concentration was measured by LC-MS/MS, and pharmacokinetic parameters such as Area Under the Concentration-Time Curve (AUC) were calculated using Winnolin software.
Oral gavage dose: 10 mg/kg.
Measurement method: Quantitative analysis was carried out in the LC/MS/MS system after pretreatment with a protein precipitation method.

T1 sequence (P43220 24-463, species assumed): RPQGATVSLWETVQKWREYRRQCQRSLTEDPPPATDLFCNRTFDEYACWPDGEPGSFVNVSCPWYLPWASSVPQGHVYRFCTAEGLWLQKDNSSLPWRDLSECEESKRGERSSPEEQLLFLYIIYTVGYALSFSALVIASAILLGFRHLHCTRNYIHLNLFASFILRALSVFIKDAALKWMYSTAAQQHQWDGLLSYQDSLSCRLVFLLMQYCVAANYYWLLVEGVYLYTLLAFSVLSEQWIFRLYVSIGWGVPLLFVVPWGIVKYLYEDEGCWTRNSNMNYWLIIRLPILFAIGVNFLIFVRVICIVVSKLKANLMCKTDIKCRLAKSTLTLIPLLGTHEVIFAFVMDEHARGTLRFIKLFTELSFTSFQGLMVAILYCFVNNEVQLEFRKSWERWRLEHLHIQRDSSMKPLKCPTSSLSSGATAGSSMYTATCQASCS
Chain of hERG channel (Q12809 whole entry): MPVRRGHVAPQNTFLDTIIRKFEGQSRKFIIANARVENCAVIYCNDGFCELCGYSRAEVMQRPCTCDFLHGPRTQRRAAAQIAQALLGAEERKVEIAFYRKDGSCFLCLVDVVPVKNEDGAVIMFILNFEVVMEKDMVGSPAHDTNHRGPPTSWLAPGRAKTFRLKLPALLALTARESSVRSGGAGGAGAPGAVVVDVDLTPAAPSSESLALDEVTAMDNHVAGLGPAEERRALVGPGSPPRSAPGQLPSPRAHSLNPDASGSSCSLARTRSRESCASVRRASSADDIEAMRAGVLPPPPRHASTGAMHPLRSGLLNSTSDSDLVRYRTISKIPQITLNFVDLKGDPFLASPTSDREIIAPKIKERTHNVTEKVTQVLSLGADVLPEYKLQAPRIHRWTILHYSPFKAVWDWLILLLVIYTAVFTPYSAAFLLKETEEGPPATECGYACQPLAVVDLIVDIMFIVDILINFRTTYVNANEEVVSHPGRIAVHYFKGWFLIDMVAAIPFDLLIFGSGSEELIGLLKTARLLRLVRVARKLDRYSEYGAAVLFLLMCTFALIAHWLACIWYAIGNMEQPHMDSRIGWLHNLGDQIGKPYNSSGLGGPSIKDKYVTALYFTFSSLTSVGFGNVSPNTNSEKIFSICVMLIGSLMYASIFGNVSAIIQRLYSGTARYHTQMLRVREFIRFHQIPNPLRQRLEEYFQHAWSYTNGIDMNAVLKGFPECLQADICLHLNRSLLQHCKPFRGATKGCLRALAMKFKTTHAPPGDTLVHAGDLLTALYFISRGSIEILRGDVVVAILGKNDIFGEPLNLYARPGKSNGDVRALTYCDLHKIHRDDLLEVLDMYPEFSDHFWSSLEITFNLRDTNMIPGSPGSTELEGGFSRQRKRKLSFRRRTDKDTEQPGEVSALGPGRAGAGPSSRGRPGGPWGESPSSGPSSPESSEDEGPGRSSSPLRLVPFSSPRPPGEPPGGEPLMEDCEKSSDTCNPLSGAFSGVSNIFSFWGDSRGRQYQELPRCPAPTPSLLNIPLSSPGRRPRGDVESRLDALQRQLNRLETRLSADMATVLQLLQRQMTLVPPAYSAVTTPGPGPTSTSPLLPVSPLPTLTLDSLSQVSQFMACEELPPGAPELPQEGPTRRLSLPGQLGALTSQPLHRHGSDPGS

`COc1cc(C(F)(F)F)ccc1COc1cccc(-c2cc(F)c(Cc3nc4ccc(C(=O)O)cc4n3C[C@@H]3CCO3)c3c2OCC3)n1` [Compound 71, (S)-2-((5-fluoro-7-(6-((2-methoxy-4-(trifluoromethyl)benzyl)oxy)pyridin-2-yl)-2,3-dihydrobenzofuran-4-yl)methyl)-1-(oxetan-2-ylmethyl)-1H-benzo[d]imidazole-6-carboxylic acid]: on hERG channel (human, CHO-hERG-DUO cells stably expressing hERG), the IC50 (in general, the concentration at which inhibition is half-maximal) is over 30 µM. Further, at GLP-1R, the EC50 (as a rule, the concentration at which the effect is half-maximal) is at most 1 nM. Moreover, the “EC50 of Positive reference / EC50 of Compound of the Present Application” value at GLP-1R (Positive reference is PF-06882961) is recorded as “Ratio ≥10”.
`COc1cc(C(=O)O)cc2c1nc(Cc1c(F)cc(-c3cccc(OCc4ccc(Cl)cc4OC(F)F)n3)c3c1CCO3)n2CC1(CF)CC1` [Compound 87, 2-((7-(6-((4-Chloro-2-(difluoromethoxy)benzyl)oxy)pyridin-2-yl)-5-fluoro-2,3-dihydrobenzofuran-4-yl)methyl)-1-((1-(fluoromethyl)cyclopropyl)methyl)-4-methoxy-1H-benzo[d]imidazole-6-carboxylic acid] came in with an IC50 at hERG channel (CHO-hERG-DUO cells) of over 30 µM. In addition, at GLP-1R, the concentration for a half-maximal effect (EC50) was at most 1 nM. For the same compound, the AUC(0-t) – broadly, the area under the concentration-time curve up to a stated or last time point – in series [1] is 12200 ng·h/mL.
